Measured values reported in patent US6350765B1, “Fungicidal mixtures based on amide compounds and azoles” (priority 2000, dated 2002).
Read-outs that look alike come from different tables or passages of the source.

System: Botrytis cinerea
Experiment: Activity against Botrytis cinerea on bell peppers (fruit disks, protective spray)
Format: in vivo
Conditions: in Capsicum, 96 h, read-out: Efficacy in % of the untreated control
Description: The active ingredients, separately or together, are formulated as a 10% emulsion in a mixture of 63% by weight of cyclohexanone and 27% by weight of emulsifier, and diluted with water to the desired concentration.
Evaluation is carried out by determining the infected leaf areas in percent. These percentages are converted into efficacies. The efficacy (W) is calculated as follows using Abbot's formula: […]
α corresponds to the fungal infection of the treated plants in % and β corresponds to the fungal infection of the untreated (control) plants in % An efficacy of 0 means that the infection level of the treated plants corresponds to that of the untreated control plants; an efficacy of 100 means that the treated plants were not infected.
The expected efficacies of the mixtures of the active ingredients were determined using Colby's formula [R. S. Colby, Weeds 15, 20-22 (1967)] and compared with the observed efficacies.
Colby's formula: E=x+y−x·y/100
E expected efficacy, expressed in % of the untreated control, when using the mixture of the active ingredients A and B at the concentrations a and b x efficacy, expressed in % of the untreated control, when using active ingredient A at the concentration a y efficacy, expressed in % of the untreated control, when using active ingredient B at the concentration b Activity against Botrytis cinerea on bell peppers
Disks of green bell peppers were sprayed to runoff point with an aqueous preparation of active ingredient which had been prepared is from a stock solution comprising 10% of active ingredient, 63% of cyclohexanone and 27% of emulsifier. 2 hours after the spray coating had dried on, the fruit disks were inoculated with a spore suspension of Botrytis cinerea containing 1.7×10^6 spores per ml of a 2% strength Biomalz solution. The inoculated fruit disks were subsequently incubated in humid chambers at 18° C. for 4 days. The Botrytis infection on the diseased fruit disks was then evaluated visually.
The visually determined values for the percentage of diseased leaf areas were converted into efficacies as percentage of the untreated control. An efficacy of 0 means the same disease level as in the untreated control, an efficacy of 100 means 0% disease. The expected efficacies for active ingredient combinations were determined using Colby's formula (Colby, S. R. “Calculating synergistic and antagonistic responses of herbicide Combinations”, Weeds, 15, p. 20-22, 1967) and compared with the observed efficacies.

[1] = single active ingredient, 16 ppm in the spray liquor, green bell pepper disks, 4 days at 18° C.
[2] = single active ingredient, 31 ppm in the spray liquor, green bell pepper disks, 4 days at 18° C.

SMILES | pest or weed control at 16 ppm | pest or weed control at 31 ppm | pest or weed control at 16 ppm [1] | pest or weed control at 31 ppm [2]
CCCN(CCOc1c(Cl)cc(Cl)cc1Cl)C(=O)n1ccnc1 [Compound II.11, N-propyl-N-[2-(2,4,^6-trichlorophenoxy)ethyl]imidazol-1-carboxamide] | 0% | 0% | – | –
Fc1ccc(C2(Cn3cncn3)OC2c2ccccc2Cl)cc1 (stereo not shown) [Compound II.5, (Z)-2-(1H-1,2,4-triazol-1-ylmethyl)-2-(4-fluorophenyl)-3-(2-chlorophenyl)-oxirane] | – | – | 0% | 0%
CCCC1COC(Cn2cncn2)(c2ccc(Cl)cc2Cl)O1 (racemic) [Compound II.12, (±)-1-[2-(2,4-dichlorophenyl)-4-propyl-1,3-dioxolan-2-ylmethyl]-1H-1,2,4-triazole] | – | – | 0% | –
O=C(Nc1ccccc1-c1ccc(F)cc1)c1cccnc1Cl [Compound I.1] | 10% | 60% | – | –
CCCCC(C#N)(Cn1cncn1)c1ccc(Cl)cc1 (stereo not shown) [Compound II.17, 2-p-chlorophenyl-2-(1H-1,2,4-triazol-1-ylmethyl)hexanenitrile] | – | – | 0% | –
CC(C1CC1)C(O)(Cn1cncn1)c1ccc(Cl)cc1 (stereo not shown) [Compound II.2, 2-(4-chlorophenyl)-3-cyclopropyl-1-(1H-1,2,4-triazol-1-yl)-butan-2-ol] | – | – | 0% | 10%
O=C(Nc1ccccc1-c1ccc(Cl)cc1)c1cccnc1Cl [Compound I.2] | 80% | – | – | –
C[Si](Cn1cncn1)(c1ccc(F)cc1)c1ccc(F)cc1 [Compound II.8, bis(4-fluorophenyl)(methyl)(1H-1,2,4-triazol-1-ylmethyl)-silane] | – | – | 0% | 0%
